Values joined by “and” are separate entries in the source; they are usually repeats but may differ in a detail not shown here. Equal entries are not always repeated. Active and inactive are the calls of the source.

The record followed here is ChEMBL document CHEMBL1201862, “PubChem BioAssay data set” (2004).

The target in assay [1] is T1, Heat shock factor protein 1 (Mus musculus, UniProt P38532).
T1 sequence (P38532 whole entry): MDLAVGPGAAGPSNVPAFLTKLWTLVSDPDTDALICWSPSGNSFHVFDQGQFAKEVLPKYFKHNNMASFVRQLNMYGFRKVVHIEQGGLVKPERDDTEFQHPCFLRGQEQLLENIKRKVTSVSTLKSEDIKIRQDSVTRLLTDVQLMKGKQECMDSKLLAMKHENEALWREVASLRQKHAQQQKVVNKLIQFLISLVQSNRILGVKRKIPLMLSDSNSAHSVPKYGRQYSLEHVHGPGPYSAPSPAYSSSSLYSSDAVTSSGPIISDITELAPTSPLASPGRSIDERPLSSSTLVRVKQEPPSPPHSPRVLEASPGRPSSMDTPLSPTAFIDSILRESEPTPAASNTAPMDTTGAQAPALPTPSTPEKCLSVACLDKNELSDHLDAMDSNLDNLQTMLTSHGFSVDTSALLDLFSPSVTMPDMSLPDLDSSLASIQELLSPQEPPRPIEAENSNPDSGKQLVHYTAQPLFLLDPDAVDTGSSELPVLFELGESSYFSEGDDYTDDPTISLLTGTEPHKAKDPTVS
The assay is described as follows: HSF1 potentiators in luciferase reporter cells, confirmation, cell-based, NIH3T3, luminescence, dose retest (AID 435004).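 Further: stress induced by proteasome inhibitor MG132 added 30 min after compound; luciferase reporter driven by HSF1 response element in NIH3T3 cells; actives raise luminescence as potentiators of the MG132 stress response.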 In kind it is functional. Background: Reporter assays use an easily measured gene product as a stand-in for the process of interest.

The target in a further assay is Cytochrome P450 2D6 (Homo sapiens, UniProt P10635).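 Further: CYP2D6 member of a cytochrome P450 panel assay.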
Cytochrome P450 2D6, sequence (P10635 whole entry): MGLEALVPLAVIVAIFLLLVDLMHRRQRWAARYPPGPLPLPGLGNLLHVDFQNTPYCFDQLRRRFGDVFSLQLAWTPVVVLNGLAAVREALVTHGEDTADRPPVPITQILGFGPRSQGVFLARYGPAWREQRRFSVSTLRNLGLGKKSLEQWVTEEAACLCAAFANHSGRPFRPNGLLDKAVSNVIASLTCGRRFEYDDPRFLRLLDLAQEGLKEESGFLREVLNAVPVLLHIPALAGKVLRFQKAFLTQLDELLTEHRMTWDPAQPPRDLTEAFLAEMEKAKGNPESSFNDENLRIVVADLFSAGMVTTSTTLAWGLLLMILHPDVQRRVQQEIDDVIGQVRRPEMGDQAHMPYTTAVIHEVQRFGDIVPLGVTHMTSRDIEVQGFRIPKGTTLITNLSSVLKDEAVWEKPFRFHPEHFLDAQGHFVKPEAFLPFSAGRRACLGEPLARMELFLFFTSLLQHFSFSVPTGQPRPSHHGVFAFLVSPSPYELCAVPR
The target in assay [2] is T2, Ubiquitin-conjugating enzyme E2 N (Homo sapiens, UniProt P61088).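 Further: Dose-response confirmation in a TR-FRET assay detecting UBC13-driven polyubiquitin chain formation, inhibition measured.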
T2 sequence (P61088 whole entry): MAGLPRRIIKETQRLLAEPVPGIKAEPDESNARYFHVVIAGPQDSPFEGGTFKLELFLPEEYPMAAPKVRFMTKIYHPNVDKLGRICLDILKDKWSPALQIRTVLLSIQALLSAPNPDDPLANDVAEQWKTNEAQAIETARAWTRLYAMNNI
It counts as functional.

The target of assay [3] is T3, Corticotropin-releasing factor receptor 2/Corticotropin-releasing factor-binding protein (Homo sapiens, UniProt P24387+Q13324).
T3 sequence (Q13324 whole entry): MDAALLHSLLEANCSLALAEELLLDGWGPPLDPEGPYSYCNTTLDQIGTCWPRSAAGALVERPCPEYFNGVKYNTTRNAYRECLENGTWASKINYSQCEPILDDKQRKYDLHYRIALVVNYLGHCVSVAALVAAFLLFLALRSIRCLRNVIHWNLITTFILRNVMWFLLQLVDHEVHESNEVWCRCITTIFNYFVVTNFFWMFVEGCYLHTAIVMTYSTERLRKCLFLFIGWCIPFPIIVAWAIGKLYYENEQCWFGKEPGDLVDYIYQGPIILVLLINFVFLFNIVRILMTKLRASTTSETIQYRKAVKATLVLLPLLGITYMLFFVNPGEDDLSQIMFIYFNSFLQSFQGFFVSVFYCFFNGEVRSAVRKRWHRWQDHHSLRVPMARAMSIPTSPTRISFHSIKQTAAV
T3 sequence (P24387 whole entry): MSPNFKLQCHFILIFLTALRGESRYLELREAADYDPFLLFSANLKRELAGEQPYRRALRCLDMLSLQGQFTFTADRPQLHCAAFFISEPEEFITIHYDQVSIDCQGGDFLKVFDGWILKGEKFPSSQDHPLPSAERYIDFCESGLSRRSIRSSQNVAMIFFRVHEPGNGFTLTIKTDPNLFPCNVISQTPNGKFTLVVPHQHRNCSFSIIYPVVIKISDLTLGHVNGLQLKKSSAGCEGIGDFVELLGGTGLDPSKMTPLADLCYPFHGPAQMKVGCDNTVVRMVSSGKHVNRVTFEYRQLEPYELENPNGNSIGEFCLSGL
Description: Dose Response confirmation of uHTS hits for small molecule antagonists of the CRF-binding protein and CRF-R2 receptor complex. It counts as functional. As to conditions: read-out: IC50_Mean.

Assay [4] addresses T3, Corticotropin-releasing factor receptor 2/Corticotropin-releasing factor-binding protein. The assay is described as follows: activators of CRF receptor 2 with binding protein – uHTS hits, confirmation (AID 602473). In kind it is functional. As to conditions: read-out: EC50_Mean.
Assay [5] in a line: Shn3 3'UTR reporter inhibitors, dose response, cell-based, Clone20 osteoblasts, firefly luciferase, cherry-picked (AID 624132).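 Further: firefly luciferase luminescence from reporter carrying the Shn3 3'UTR in osteoblasts.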 In kind it is functional.
Assay [6] is described as follows: HepG2 cell cytotoxicity, dose response, cytotoxicity control for Shn3 inhibitor project, CellTiter-Glo, cherry-picked (AID 624134). It counts as functional, cell-based.
Assay [7] in a line: control 3'UTR Renilla luciferase suppression, dose response, counter-screen for Shn3 inhibitor project, cell-based, Clone20-Shn3RL, cherry-picked (AID 624133). It counts as functional.
Assay [8] in a line: inhibitors of intracellular T. cruzi replication, confirmation, NIH3T3 host cells, beta-gal luminescence (AID 2044).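 Further: intracellular parasites grown in NIH/3T3 mouse fibroblasts as host cells; luminescent beta-galactosidase reporter signal from transgenic T. cruzi replicating inside host cells; inhibitors lower the luminescence signal.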 It counts as functional, cell-based.
A short description of assay [9]: cytotoxicity toward NIH3T3 fibroblasts, dose response, counter-screen, cell-based, ATP luminescence, mouse fibroblasts (AID 2010).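 Further: cells exposed to compound for about 90 hours before reading.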 In kind it is functional. On the technique in general: Counterscreens check selectivity or assay interference.
The next assay addresses T4, Cytochrome P450 1A2 (Homo sapiens, UniProt P05177).
T4 sequence (P05177 whole entry): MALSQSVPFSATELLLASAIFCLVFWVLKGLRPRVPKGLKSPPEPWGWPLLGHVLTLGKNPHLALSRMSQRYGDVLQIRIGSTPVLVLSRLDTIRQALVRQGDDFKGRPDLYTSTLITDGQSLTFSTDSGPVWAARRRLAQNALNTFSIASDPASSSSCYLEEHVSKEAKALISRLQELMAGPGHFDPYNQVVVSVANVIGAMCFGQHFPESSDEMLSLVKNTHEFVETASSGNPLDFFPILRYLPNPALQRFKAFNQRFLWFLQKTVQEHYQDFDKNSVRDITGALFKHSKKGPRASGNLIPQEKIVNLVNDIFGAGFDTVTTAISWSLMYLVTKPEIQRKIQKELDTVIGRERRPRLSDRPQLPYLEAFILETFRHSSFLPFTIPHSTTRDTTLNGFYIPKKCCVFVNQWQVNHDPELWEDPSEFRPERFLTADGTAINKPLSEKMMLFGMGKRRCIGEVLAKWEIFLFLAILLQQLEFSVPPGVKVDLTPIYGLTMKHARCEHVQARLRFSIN

For the compound `COc1ccc(NC(=O)COc2ccccc2Cc2ccccc2)cc1S(N)(=O)=O`, the EC50 in [1] was > 260 µM (inactive).

In the case of `CCOC(=O)CSc1cc(-c2ccccc2)nc2ncnn12`, in assay [1], the EC50 was 22.8 µM (active).

Take `O=C1NCC2(CCN(CCc3ccccc3)CC2)O1` [FENSPIRIDE]: at Cytochrome P450 2D6, the AC50 – broadly, the midpoint of the concentration-response curve, whichever way the signal moves – is 12.6 µM (inconclusive) and 39.8 µM (inconclusive).

`C#CCOCCOCCOCCNc1nc(N2CCN(C(=O)C([C@@H](C)O)n3cc([C@@H](N)CCCCN)nn3)CC2)nc(N2CCN(C(=O)C([C@@H](C)O)n3cc([C@@H](N)CCCCN)nn3)CC2)n1` (stereo partly drawn): in assay [2], the IC50 is > 20 µM (inactive).

In the case of `Cc1ccccc1Cn1c(-c2cncs2)nc2ccccc21`, the EC50 in [1] is > 260 µM (inactive).

Take `CC(=O)c1cc(C#N)c(Oc2ccc(Cl)cc2Cl)nc1C`: the IC50 in [3] was > 47.1 µM (inactive). Also, in [4], the EC50 was > 53 µM (inactive).

With `O=S(=O)(c1ccccc1C(F)(F)F)N1CCN(c2ncnc3sccc23)CC1`, the AC50 was 3.44 µM (active) in [5], 8.89 µM (active) in assay [6] and 9.4 µM (active) in assay [7].

Regarding `Cc1ccccc1OCC(O)CN1CCN(CCN2C(=O)c3cccc4cccc(c34)C2=O)CC1` (stereo not drawn), the values for the EC50 in assay [8] and in [9] were 0.851 µM (active) and > 60 µM (inconclusive), respectively. Also, in assay [2], the IC50 is > 20 µM (inactive).

Regarding `COc1cc(NC(=O)c2cc([N+](=O)[O-])ccc2Br)ccc1NC(=O)c1ccco1`, the EC50 in assay [1] is 9.95 µM (active).

Regarding `COc1ccc(CN2CCC(CO)(CCOc3ccccc3)CC2)cc1C`, the IC50 in assay [3] was > 47.1 µM (inactive). Also, the EC50 in assay [4] was > 53 µM (inactive).

As to `CCCCn1c(C)c(C(=O)OCC)c2c(CN3CCOCC3)c(O)ccc21`, the EC50 in assay [1] is > 260 µM (inactive).

Consider `CCN1CCN(c2cc(C)c3cc(NC(=S)N4CCN(c5ccc(F)cc5)CC4)ccc3n2)CC1`, for which, in assay [2], the IC50 is > 20 µM (inactive).

For `Oc1ccc(Cl)cc1Nc1nc(NCC2CCCO2)c2ccccc2n1` (stereo not drawn), the IC50 in [2] is > 20 µM (inactive).

Turning to `Cc1ccc(S(=O)(=O)c2c(N)n(-c3ccccc3)c3nc4ccccc4nc23)cc1`, in assay [1], the EC50 was 28.6 µM (active).

On to `O=C(N/N=C1\CC(c2ccccc2)Oc2ccccc21)c1ccc(O)cc1` (stereo not drawn), for which the EC50 in assay [1] was > 260 µM (inactive).

Turning to `COc1cccc(CN2CC(C(=O)NCc3ccc(Cl)s3)CCC2=O)c1` (stereo not drawn), the IC50 in assay [3] was > 47.1 µM (inactive). In addition, in assay [4], the EC50 is > 53 µM (inactive).

In the case of `CCC(=O)NC(C)c1cc(Cl)c2cccnc2c1O` (stereo not drawn), the AC50 in assay [5] is 5.19 µM (active); in [6], 9.85 µM (active); in assay [7] it was 1.62 µM (active).

With `CCN(CC)Cc1c(C)nc2ccc(NC(C)=O)cc2c1O`, the IC50 in [3] is > 47.1 µM (inactive). Also, the EC50 in [4] was > 53 µM (inactive).

Regarding `Cc1nn(C)cc1/C=N\NC(=O)c1ccc2c(c1)c(C)c(C)n2Cc1ccccc1`, in assay [1], the EC50 was 67.7 µM (active).

Consider `COc1cc(N=C(S)NC(C)(C)C)c(OC)cc1Cl`, for which, in [1], the EC50 was > 260 µM (inactive).

As to `Cc1ccc(NC(=O)c2sc(N)nc2-c2ccc([N+](=O)[O-])cc2)c(C)c1`, the EC50 in assay [1] was > 260 µM (inactive).

In the case of `O=C(c1cc2nc(-c3ccc(F)cc3)cc(C(F)(F)F)n2n1)N1CCOCC1`, the IC50 in assay [3] was > 47.1 µM (inactive). For the same compound, the EC50 in assay [4] is > 53 µM (inactive).

Regarding `O=S(=O)(c1cccc2nsnc12)N1CCc2ccccc2C1`, the IC50 in assay [3] was > 47.1 µM (inactive). Moreover, in [4], the EC50 was > 53 µM (inactive).

As for `O=C(COC(=O)Cn1cnc2ccccc2c1=O)NCc1ccccc1Cl`, in assay [2], the IC50 was > 20 µM (inactive).

`Cc1ccc(NC(=O)c2oc3ccccc3c2COC(C)C)cc1S(=O)(=O)N1CCOCC1`: the figures for the AC50 in [5] and in assay [6] were 14.4 µM (active) and > 70 µM (inactive), respectively.

With `O=[N+]([O-])c1ccc(S(=O)(=O)Cc2ccccc2)c([N+](=O)[O-])c1`, the results for the AC50 on Cytochrome P450 2D6 and at Cytochrome P450 1A2 were 2.51 µM (inconclusive) and 5.01 µM (inconclusive), respectively.

Regarding `Cc1ccccc1Nc1nc(N)nc(COC(=O)c2cccc(S(=O)(=O)N(C)c3ccccc3)c2)n1`, the IC50 in assay [3] was > 47.1 µM (inactive). Moreover, the EC50 in assay [4] was > 53 µM (inactive).

Consider `O=C(C[C@H]1C[C@@H]2c3cc(NS(=O)(=O)c4ccccc4)ccc3O[C@@H]2[C@H](CO)O1)N1CCOCC1`, for which the IC50 in assay [3] is > 47.1 µM (inactive). Moreover, the EC50 in assay [4] was > 53 µM (inactive).

`FC(F)(F)c1ccccc1-c1cncnc1Nc1ccccc1`: the AC50 at Cytochrome P450 2D6 is 39.8 µM (inconclusive); at Cytochrome P450 1A2, 25.1 µM (inconclusive).

Regarding `CCN(CC)C(=O)CSc1ncnc2c1nnn2-c1ccc(OC)cc1`, in [3], the IC50 is > 47.1 µM (inactive). In [4], the EC50 was > 53 µM (inactive).

Consider `COc1ccc(CNc2ncnc3ccc(-c4ccc(C(=O)N(C)C)cc4)cc23)c(OC)c1`, for which the AC50 at Cytochrome P450 2D6 is 20 µM (inconclusive); at Cytochrome P450 1A2, 39.8 µM (inconclusive).

With `COc1cc2c(cc1O)C[C@@H]1c3c(cc(O)c(OC)c3-2)CCN1C`, at Cytochrome P450 2D6, the AC50 was 3.16 µM (inconclusive).

Take `CCC(=O)Nc1c(S(=O)(=O)c2ccccc2)c2nc3ccccc3nc2n1C(C)c1ccccc1` (stereo not drawn): the EC50 in assay [1] was > 260 µM (inactive).

Consider `CCn1c(=O)n(CC)c2cc(S(=O)(=O)Nc3ccccc3C)c(C)cc21`, for which, in assay [1], the EC50 is > 260 µM (inactive).

With `COc1cccc(NS(=O)(=O)c2ccc3ncc(C(=O)NCCN4CCOCC4)c(O)c3c2)c1`, the AC50 at Cytochrome P450 2D6 is 28.2 µM (inconclusive); at Cytochrome P450 1A2, 12.6 µM (inconclusive).

For `O=C(CC12CCC(CC1)C2)NCc1ccc2c(c1)OCO2`, in assay [1], the EC50 is > 260 µM (inactive).

Take `CN(C)c1ccc(-c2cncnc2Nc2ccccc2)cc1`: on Cytochrome P450 2D6, the AC50 is 20 µM (inconclusive).

As for `Cc1ccc2c(c1)c(C)c(C)n2CC(O)Cn1nc(C)c(Br)c1C` (stereo not drawn), the EC50 in assay [1] was > 260 µM (inactive).

Take `CCOC(=O)C1=NN(c2ccccc2)C2=NC(C)=C(C(=O)OC)C(c3cccs3)N12` (stereo not drawn): the IC50 in assay [3] is > 47.1 µM (inactive). Moreover, the EC50 in [4] was > 53 µM (inactive).

Consider `CN(NC(=O)Nc1ccccc1)c1cnn(C)c(=O)c1Cl`, for which the IC50 in assay [3] is > 47.1 µM (inactive). Further, the EC50 in assay [4] was > 53 µM (inactive).

Take `Cc1cccc(N(C(=O)c2snc(C(N)=O)c2N)C(C(=O)NCC2CCCO2)c2c[nH]c3ccccc23)c1` (stereo not drawn): in assay [2], the IC50 is > 20 µM (inactive).
